The values that follow come from patent US20190367516A1 (Bayer Pharma Aktiengesellschaft, priority 2015, published 2019).

Like-named read-outs stand apart in the source and are kept apart here.

Experiment [1] has as its target T1, human M2 receptor (Homo sapiens, UniProt P08172).
T1 sequence (P08172 1-466): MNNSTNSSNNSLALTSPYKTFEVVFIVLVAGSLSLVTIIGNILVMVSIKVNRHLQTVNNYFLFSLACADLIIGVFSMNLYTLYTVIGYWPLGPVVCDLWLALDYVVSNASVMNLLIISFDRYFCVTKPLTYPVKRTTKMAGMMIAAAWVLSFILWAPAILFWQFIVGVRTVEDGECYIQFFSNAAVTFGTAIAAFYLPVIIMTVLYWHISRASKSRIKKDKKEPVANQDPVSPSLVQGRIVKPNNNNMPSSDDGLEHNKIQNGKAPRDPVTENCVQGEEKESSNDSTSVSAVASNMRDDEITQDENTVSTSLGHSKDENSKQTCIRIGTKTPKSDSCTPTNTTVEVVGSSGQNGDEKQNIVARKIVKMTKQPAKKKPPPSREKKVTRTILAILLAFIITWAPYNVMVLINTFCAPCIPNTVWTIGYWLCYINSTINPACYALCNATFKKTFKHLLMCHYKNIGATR
The experiment is classed as cell-based. Conditions: α >1 = positive cooperativity.

The target of experiment [2] is T1, human M2 receptor. The note with it: for Emax: read-out: Efficiency, boosting of the acetylcholine effect at EC20 acetylcholine concentration; for Efficiency: boosting of the acetylcholine effect at EC20 acetylcholine concentration.
Where [3] appears, read: shift in the acetylcholine dose-response curve (Allosteric EC50 shift, GraphPad PRISM).
[4] abbreviates: Receptor activity EC50, M2-GIRK1/4 activation test, acetylcholine at EC20, allosteric potency, in some cases mean values from two or more determinations.
Setting [5] is: shift of acetylcholine dose-response curve (Allosteric EC50 shift).
The mark [6] stands for this setting: Receptor activity EC50, allosteric potency at EC20 acetylcholine, M2-GIRK1/4 reporter cells, in some cases mean of two or more determinations.

As for `O=C(NC12CC3CC(CC(C3)C1)C2)c1cn(-c2ccc(F)cc2F)c2nc(N3CC4C(C3)C4(F)F)ccc2c1=O` (centres unmarked) [Example 2, 7-(6,6-Difluoro-3-azabicylco[3.1.0]hex-3-yl)-1-(2,4-difluorophenyl)-4-oxo-N-(tricyclo[3.3.1.1^3,7]dec-1-yl)-1,4-dihydro-1,8-naphthyridine-3-carboxamide], on human M2 receptor [1] (setting [3]), the “Cooperativity (alpha factor)” value came to 24. On human M2 receptor [2] (setting [4]), this molecule yielded an EC50 of 17 nM.

On to `CC[C@@H](NC(=O)c1cn(-c2ccc(F)cc2F)c2nc(NCC(F)F)ccc2c1=O)C(F)(F)F` [Example 123, 7-[(2,2-Difluoroethyl)amino]-1-(2,4-difluorophenyl)-4-oxo-N-[(2R)-1,1,1-trifluorobutan-2-yl]-1,4-dihydro-1,8-naphthyridine-3-carboxamide], for which, at human M2 receptor [1] (setting [3]), the “Cooperativity (alpha factor)” value was determined as 14. Moreover, the EC50 on human M2 receptor [2] (setting [4]) is 115 nM.

For `CC(C)C(NC(=O)c1cn(-c2c(F)cc(F)cc2F)c2nc(N3C[C@@H](O)[C@H](O)C3)ccc2c1=O)C(C)C` [Example 474, 7-[(3R,4R)-3,4-Dihydroxypyrrolidin-1-yl]-N-(2,4-dimethylpentan-3-yl)-4-oxo-1-(2,4,6-trifluorophenyl)-1,4-dihydro-1,8-naphthyridine-3-carboxamide], the “Cooperativity (alpha factor)” value on human M2 receptor [1] (setting [5]) amounted to 44. Moreover, a half-maximal response on human M2 receptor [2] (setting [6]) (EC50) required 5 nM. In addition, the Emax on human M2 receptor [2] (M2-GIRK1/4 reporter cells) was 100%.

On to `CCC(NC(=O)c1cn(-c2ccc(F)cc2F)c2nc(N3CCN(C(=O)OC)CC3)ccc2c1=O)C(F)(F)F` (single isomer, unassigned; enantiomer b) [Example 25, ent-Methyl 4-{8-(2,4-difluorophenyl)-5-oxo-6-[(1,1,1-trifluorobutan-2-yl)carbamoyl]-5,8-dihydro-1,8-naphthyridin-2-yl}piperazine-1-carboxylate (Enantiomer B)], for which the “Cooperativity (alpha factor)” value at human M2 receptor [1] (setting [3]) stood at 20. Also, the EC50 at human M2 receptor [2] (setting [4]) is 84 nM.

In the case of `CC[C@@H](NC(=O)c1cn(-c2ccc(F)cc2F)c2nc(N3CC[C@@H](F)[C@H](O)C3)ccc2c1=O)C(F)(F)F` [Example 33, 1-(2,4-Difluorophenyl)-7-[(3R,4R)-4-fluoro-3-hydroxypiperidin-1-yl]-4-oxo-N-[(2R)-1,1,1-trifluorobutan-2-yl]-1,4-dihydro-1,8-naphthyridine-3-carboxamide], the “Cooperativity (alpha factor)” value at human M2 receptor [1] (setting [3]) turned out to be 20. This molecule also returned an EC50 at human M2 receptor [2] (setting [4]) of 91 nM.

Regarding `O=C(NC12CC3CC(CC(C3)C1)C2)c1cn(-c2ccc(F)cc2F)c2nc(N3CCCC[C@H]3CO)ccc2c1=O` [Example 15, 1-(2,4-Difluorophenyl)-7-[(2S)-2-(hydroxymethyl)piperidin-1-yl]-4-oxo-N-(tricyclo[3.3.1.1^3,7]dec-1-yl)-1,4-dihydro-1,8-naphthyridine-3-carboxamide], the “Cooperativity (alpha factor)” value on human M2 receptor [1] (setting [3]) turned out to be 8. The same molecule returned an EC50 at human M2 receptor [2] (setting [4]) of 85 nM.

As to `CN(C)c1ccc2c(=O)c(C(=O)NC(c3c(Cl)cccc3Cl)C(F)(F)F)cn(-c3ccc(F)cc3F)c2n1` (racemic) [Example 56, rac-N-[1-(2,6-Dichlorophenyl)-2,2,2-trifluoroethyl]-1-(2,4-difluorophenyl)-7-(dimethylamino)-4-oxo-1,4-dihydro-1,8-naphthyridine-3-carboxamide], the “Cooperativity (alpha factor)” value at human M2 receptor [1] (setting [3]) is 15. At human M2 receptor [2] (setting [4]), this molecule showed a half-maximal effective concentration (EC50) of 56 nM.

Consider `C[C@@H]1CN(c2ccc3c(=O)c(C(=O)NC(C)(C)CC(F)(F)F)cn(-c4c(F)cc(F)cc4F)c3n2)C(=O)N1` [Example 457, 7-[(4R)-4-Methyl-2-oxoimidazolidin-1-yl]-4-oxo-N-(4,4,4-trifluoro-2-methylbutan-2-yl)-1-(2,4,6-trifluorophenyl)-1,4-dihydro-1,8-naphthyridine-3-carboxamide], for which the “Cooperativity (alpha factor)” value at human M2 receptor [1] (setting [5]) is 36. On human M2 receptor [2] (setting [6]), this molecule gave a 50% effective concentration (EC50) of 4 nM. For the same molecule, on human M2 receptor [2] (M2-GIRK1/4 reporter cells), the Emax came out at 82%.

On to `O=C(NC(c1c(F)cccc1F)C(F)(F)F)c1cn(-c2ccc(F)cc2F)c2nc(N3C[C@@H](O)CC3=O)ccc2c1=O` (single isomer, unassigned) [Example 245], for which the “Cooperativity (alpha factor)” value at human M2 receptor [1] (setting [3]) turned out to be 42. Moreover, the 50% effective concentration (EC50) on human M2 receptor [2] (setting [4]) is 112 nM.

`CN(C)c1ccc2c(=O)c(C(=O)Nc3ccccc3C(F)(F)F)cn(-c3ccc(F)cc3F)c2n1` [Example 57, 1-(2,4-Difluorophenyl)-7-(dimethylamino)-4-oxo-N-[2-(trifluoromethyl)phenyl]-1,4-dihydro-1,8-naphthyridine-3-carboxamide]: the “Cooperativity (alpha factor)” value on human M2 receptor [1] (setting [3]) came to 7. At human M2 receptor [2] (setting [4]), this molecule registered an EC50 of 82 nM.

For `C[C@@H](O)CN(C)c1ccc2c(=O)c(C(=O)N[C@@H](C3CC3)C(F)(F)F)cn(-c3c(F)cc(F)cc3F)c2n1` [Example 494], at human M2 receptor [1] (setting [5]), the “Cooperativity (alpha factor)” value was 20. Further, at human M2 receptor [2] (setting [6]), the 50% effective concentration (EC50) came to 28 nM. The Emax on human M2 receptor [2] (M2-GIRK1/4 reporter cells) was 78%.

Regarding `O=C(Nc1c(Cl)cccc1Cl)c1cn(-c2ccc(F)cc2F)c2nc(N3CC[C@H](O)C3=O)ccc2c1=O` [Example 202, N-(2,6-Dichlorophenyl)-1-(2,4-difluorophenyl)-7-[(3S)-3-hydroxy-2-oxopyrrolidin-1-yl]-4-oxo-1,4-dihydro-1,8-naphthyridine-3-carboxamide], the “Cooperativity (alpha factor)” value at human M2 receptor [1] (setting [3]) is 18. In addition, a half-maximal effect at human M2 receptor [2] (setting [4]) (EC50) was put at 89 nM.

In the case of `O=C(NC(CC(F)(F)F)C1CC1)c1cn(-c2c(F)cc(F)cc2F)c2nc(N3C[C@@H](O)[C@H](O)C3)ccc2c1=O` (single isomer, unassigned) [Example 439], at human M2 receptor [1] (setting [5]), the “Cooperativity (alpha factor)” value is given as 35. The EC50 on human M2 receptor [2] (setting [6]) was 20 nM. On human M2 receptor [2] (M2-GIRK1/4 reporter cells), the Emax amounted to 100%.

Take `CC[C@@H](NC(=O)c1cn(-c2ccc(F)cc2F)c2nc(N3CCC3=O)ccc2c1=O)C(F)(F)F` [Example 205, 1-(2,4-Difluorophenyl)-4-oxo-7-(2-oxoazetidin-1-yl)-N-[(2R)-1,1,1-trifluorobutan-2-yl]-1,4-dihydro-1,8-naphthyridine-3-carboxamide]: at human M2 receptor [1] (setting [3]), the “Cooperativity (alpha factor)” value is recorded as 4. Moreover, at human M2 receptor [2] (setting [4]), it took 105 nM to reach a half-maximal effect (EC50).

Turning to `CC(C)(NC(=O)c1cn(-c2c(F)cc(F)cc2F)c2nc(N3C[C@@H](O)CC3=O)ccc2c1=O)C(F)F` [Example 516, N-(1,1-Difluoro-2-methylpropan-2-yl)-7-[(4S)-4-hydroxy-2-oxopyrrolidin-1-yl]-4-oxo-1-(2,4,6-trifluorophenyl)-1,4-dihydro-1,8-naphthyridine-3-carboxamide], the “Cooperativity (alpha factor)” value at human M2 receptor [1] (setting [5]) came out at 35. The molecule also returned an EC50 at human M2 receptor [2] (setting [6]) of 20 nM. At human M2 receptor [2] (M2-GIRK1/4 reporter cells), the Emax came to 100%.

Turning to `CC[C@@H](NC(=O)c1cn(-c2ccc(F)cc2F)c2nc(N3CCC(C)(OC)C3=O)ccc2c1=O)C(F)(F)F` (single isomer, unassigned) [Example 198], the “Cooperativity (alpha factor)” value at human M2 receptor [1] (setting [3]) came to 13. In addition, the response on human M2 receptor [2] (setting [4]) was half-maximal at 113 nM (EC50).

Consider `C[C@H](NC(=O)c1cn(-c2ccc(F)cc2F)c2nc(N(C)C)ccc2c1=O)C(F)(F)F` [Example 44, 1-(2,4-Difluorophenyl)-7-(dimethylamino)-4-oxo-N-[(2S)-1,1,1-trifluoropropan-2-yl]-1,4-dihydro-1,8-naphthyridine-3-carboxamide], for which, at human M2 receptor [1] (setting [3]), the “Cooperativity (alpha factor)” value is recorded as 12. This molecule also registered a concentration for a half-maximal effect (EC50) at human M2 receptor [2] (setting [4]) of 111 nM.

`O=C(NC(C1CCC1)C(F)(F)F)c1cn(-c2c(F)cc(F)cc2F)c2nc(N3C[C@@H](O)CC3=O)ccc2c1=O` (single isomer, unassigned) [Example 507]: the “Cooperativity (alpha factor)” value on human M2 receptor [1] (setting [5]) is recorded as 37. For the same molecule, the EC50 on human M2 receptor [2] (setting [6]) was found to be 6 nM. On human M2 receptor [2] (M2-GIRK1/4 reporter cells), this molecule displayed an Efficiency of 98.0%.

In the case of `CC[C@H](NC(=O)c1cn(-c2c(F)cc(F)cc2F)c2nc(N3C[C@@](C)(O)C[C@H]3C)ccc2c1=O)C(F)(F)F` [Example 331, 7-[(2R,4S)-4-Hydroxy-2,4-dimethylpyrrolidin-1-yl]-4-oxo-N-[(2S)-1,1,1-trifluorobutan-2-yl]-1-(2,4,6-trifluorophenyl)-1,4-dihydro-1,8-naphthyridine-3-carboxamide], on human M2 receptor [1] (setting [3]), the “Cooperativity (alpha factor)” value came out at 7. This molecule came in with a 50% effective concentration (EC50) on human M2 receptor [2] (setting [4]) of 33 nM.

Regarding `CC(C)C(NC(=O)c1cn(-c2c(F)cc(F)cc2F)c2nc(N3C[C@@H](O)[C@H](O)C3)ccc2c1=O)C(F)(F)F` (single isomer, unassigned) [Example 554], the “Cooperativity (alpha factor)” value at human M2 receptor [1] (setting [5]) was found to be 54. In addition, the EC50 on human M2 receptor [2] (setting [6]) worked out at 10 nM. The Efficiency at human M2 receptor [2] (M2-GIRK1/4 reporter cells) amounted to 94.5%.

With `CC[C@H](NC(=O)c1cn(-c2c(F)cc(F)cc2F)c2nc(N3C[C@@H](C)NC3=O)ccc2c1=O)C(F)(F)F` [Example 456, 7-[(4R)-4-Methyl-2-oxoimidazolidin-1-yl]-4-oxo-N-[(2S)-1,1,1-trifluorobutan-2-yl]-1-(2,4,6-trifluorophenyl)-1,4-dihydro-1,8-naphthyridine-3-carboxamide], the “Cooperativity (alpha factor)” value at human M2 receptor [1] (setting [5]) is given as 32. On human M2 receptor [2] (setting [6]), the EC50 was found to be 9 nM. Moreover, the Emax on human M2 receptor [2] (M2-GIRK1/4 reporter cells) amounted to 92%.

As for `CC[C@H](NC(=O)c1cn(-c2c(F)cc(F)cc2Cl)c2nc(N3C[C@@H](O)CC3=O)ccc2c1=O)C(F)(F)F` (single isomer, unassigned) [Example 399], the “Cooperativity (alpha factor)” value at human M2 receptor [1] (setting [5]) turned out to be 11. Moreover, the response at human M2 receptor [2] (setting [6]) was half-maximal at 40 nM (EC50). The Emax at human M2 receptor [2] (M2-GIRK1/4 reporter cells) worked out at 96.5%.

In general, EC50 refers to the midpoint of the concentration-response curve.
